# Measurements taken from patent publication US5610171A, “Inhibition of metastasis in patients having cancer with pyridyloxazole-2-ones” (Merrell Pharmaceuticals Inc., priority 1995, dated 1997).
# “Also recorded” adds a separate entry of the source. Where two headings read alike, the source gives them in different places.
# Experiments:
# cytosolic PKC [1] = assay: Inhibition of B16F1 cytosolic PKC activity; type: biochemical, murine; details: B16F1 cytosol fraction
# Experimental: (§1) Protein Kinase C Preparation
# (§2) Cytostolic and membrane-associated PKC was prepared as described in Thomas, T. P., Gopalakrishna, R. and Anderson, W. B. Hormone- and tumor promoter-induced activation of membrane association of protein kinase C in intact cells, Methodsin Enzymology, 141: 399-411, 1987. Sub-confluent B16F1 cultures (4×10^7 cells total) were washed twice with phosphate buffered saline (PBS), pH 7.2 and then twice with buffer A (20 mM Tris, pH 7.5, 2 mM EDTA, 0.5 mM EGTA, […], 2 mM phenylmethylsulfonyl fluoride (PMSF), and 2 μg/ml leupeptin). Cells were scraped from the plates in buffer A, homogenized (40 strokes) and sedimented by centrifugation for 1 hour at 100,000 g. The cytosol was stored on ice while the particulate fraction was washed with buffer B (20 mM Tris, pH 7.2, 2 mM EDTA, 0.5 mM EGTA, and 2 mM (PMSF). The membranes were resuspended with buffer B and homogenized with 10 strokes. Nonidet P-40 (1% final concentration) was added and the mixture was incubated for 30 minutes at 4° C. in a rotating mixer. Nonsolubilized material was removed by centrifugation for 10 minutes at 1400 g. Cytostolic and membrane-bound PKC was partially purified by chromatography over 1 ml columns of DE-52 (Whatman) equilibrated with buffer B. The enzyme was applied to the column and washed with 2×3 ml buffer B. Elution of PKC was then effected by the addition of 2 ml buffer B containing 100 mM NaCl.
# (§3) PKC was quantitated as described in Thomas et al., ibid. The assay contained 20 mM Tris (pH 7.5), 0.75 mM CaCl, 10 mM magnesium acetate, […] histone III-S, 0.25 μg/ml leupeptin, 100 μM [gamma-^32 p]-ATP (120 cpm/pmol), 0.96 μg/ml phosphatidylserine, and 0.0064 μg/ml 1,2-diolein in a total assay volume of 250 μl. Blanks contained no calcium or phospholipids. Incubation was for 5 minutes at 30° C. at which point the reaction was terminated by the addition of 1 ml 25% trichloroacetic acid (TCA). Samples were applied to Whatman GF/B filters, the tube rinsed twice with 5% TCA and the filter then washed 5 times with 5% TCA.
# ^a Subconfluent B16F1 cells were harvested and cytosol and membrane
# fractions prepared as described in Materials and Methods. PKC activity wa
# then measured in the presence of the drugs listed.
# [2] = test system: B16F1 cells / human umbilical vein endothelial cells (HUVEC); assay: Adhesion of B16F1 melanoma cells to endothelial cells (HUVEC); type: cell-based, murine B16F1 cells; human HUVEC; details: for Adherent B16F1 Cells, Mean +/- SE / activity at 50 µM: 50 μM, 24 hours treatment; for activity at 50 µM: Mus musculus, read-out: B16F1 cells adhered expressed as percent of control
# Experimental: Adhesion of Tumor Cells to Endothelial Cells
# Round 15 mm Thermanox tissue culture cover slips from Lux were placed in Corning 12-well, 22 mm diameter tissue culture clusters. HUVEC (2×10^6) were added to each well and grown to confluency. Sub-confluent B16F1 cells were labeled with 1 μCi/ml [^3 H]-thymidine (New England Nuclear, 78.5 Ci/mmol) for 24 hours at 37° C.
# In preparation for the adhesion assay, the tissue culture wells containing either HUVEC or no cells were blocked with MEM containing 20 mM HEPES and 1% BSA for 1 hour at 37° C. B16F1 cells were removed from the flasks as described above for adhesion to basement membrane proteins and diluted to a density of 2×10^5 viable cells/ml in MEM (viability determined by trypan blue exclusion).
# Blocking solution was aspirated from the wells and 1 ml of cells were added per well and incubated at 37° C. Nonadherent cells were washed from coverslips as described in Wright, P. S., Cross-Doersen, D., McCann, P. P. and Bitonti, A. J., Plasmodium falciparum: a rapid assay for cytoadherence of [^3 H]-hypoxanthine-labeled infected erythrocytes to human melanoma cells, Exp. Parasitol., 71: 346-349, 1990. Coverslips were retrieved from the well with forceps and dipped 10 times into a beaker of 100 ml MEM. Coverslips were placed into scintillation vials and counted in 10 ml Beckman Ready Protein.
# B16F1 cells were treated with 4-propyl-5(4-pyridinyl)-
# (3H)-oxazolone for 24 hours at 37° C. Cells were then
# harvested and added to wells containing confluent HUVEC
# cells and incubated for the time indicated at 37° C. Details
# are given in Materials and Methods.
# laminin = assay: Adhesion of B16F1 cells to laminin; type: cell-based; details: 24 hours
# Experimental: (§4) Adhesion of B16F1 Cells to Basement Membrane Proteins
# (§5) Adhesion proteins (2 μg/well) were coated onto Immulon I Removawells from Dynatech and incubated for 1 hour at 37° C. The wells were then blocked for 1 hour with 400 μl PBS, pH 7.2 containing 1% bovine serum albumin (BSA) at 37° C. Prior to addition of the cell suspension, the blocking solution was aspirated.
# (§6) Sub-confluent cells were washed twice with HBSS and removed form flasks by incubation for 10 minutes at 37° C. with PBS (pH 7.2), 2 mM EDTA, and 1% BSA. The cells were washed twice with MEM containing 20 mM HEPES and 0.1% BSA and resuspended in the same medium to give a cell density of […].
# (§7) Cells were added to wells in 50 μl (5×10^4 cells) and incubated at 37° C. The wells were aspirated and washed three times with 400 μl PBS (pH 7.2) containing 0.1% BSA. Wells were detached and counted in 5 ml Beckman Ready Protein. Blanks were not coated with protein but were blocked with BSA as described above.
# membrane-associated PKC = assay: PKC activity in membranes of pretreated B16F1 cells; type: cell-based, murine; details: 24 hours
# Experimental: as §1, §2, §3
# B16F1 cells were incubated with 4-propyl-5(4-
# pyridinyl)-2(3H)-oxazolone for 24 hours at 37° C. PKC was
# (§8) then prepared and its activity was measured as described in […]
# cytosolic PKC [3] = assay: PKC activity in cytosol of pretreated B16F1 cells; type: cell-based, murine; details: 24 hours
# Experimental: as §1, §2
# PKC was quantitated as described in Thomas et al., ibid. The assay contained 20 mM Tris (pH 7.5), 0.75 mM CaCl, 10 mM magnesium acetate, […] histone III-S, 0.25 μg/ml leupeptin, 100 μM [gamma-^32 p]-ATP (120 cpm/pmol), 0.96 μg/ml phosphatidylserine, and 0.0064 μg/ml 1,2-diolein in a total assay volume of 250 μl. Blanks contained no calcium or phospholipids. Incubation was for 5 minutes at 30° C. at which point the reaction was terminated by the addition of 1 ml 25% trichloroacetic acid (TCA). […]
# as §8
# fibrinogen = assay: Adhesion of B16F1 cells to fibrinogen; type: cell-based; details: 24 hours
# Experimental: as §4, §5, §6, §7
structure (smiles),measurement,setting,value
"CCCc1[nH]c(=O)oc1-c1ccncc1 [Compound 1, 4-propyl-5(4-pyridinyl)-2(3H)-oxazolone]",IC50,cytosolic PKC [1],54 µM
same,adherence to HUVEC,[2],decreased adhesion; also recorded: less adherent
same,"Adherent B16F1 Cells, Mean +/- SE",[2]; 5 min adhesion,"4,513 cells"
same,"Adherent B16F1 Cells, Mean +/- SE",[2]; 10 min adhesion,"7,828 cells"
same,"Adherent B16F1 Cells, Mean +/- SE",[2]; 20 min adhesion,"48,750 cells"
same,"Adherent B16F1 Cells, Mean +/- SE",[2]; 30 min adhesion,"92,084 cells"
same,"Adherent B16F1 Cells, Mean +/- SE",[2]; 60 min adhesion,"136,950 cells"
same,activity at 50 µM,"[2]; B16-F1, 5 min, 5 min adhesion",126%
same,activity at 50 µM,"[2]; B16-F1, 10 min, 10 min adhesion",39%
same,activity at 50 µM,"[2]; B16-F1, 20 min, 20 min adhesion",60%
same,activity at 50 µM,"[2]; B16-F1, 0.5 h, 30 min adhesion",71%
same,activity at 50 µM,"[2]; B16-F1, 1 h, 60 min adhesion",110%
same,adherence to laminin,laminin,inhibited minimally or not at all
same,PKC Activity Ratio membrane/cytosol,membrane-associated PKC; 5 μM,0.29
same,"PKC Activity, membrane",membrane-associated PKC; 5 μM,2151 pmol per min per mg protein
same,PKC Activity Ratio membrane/cytosol,membrane-associated PKC; 25 μM,0.61
same,"PKC Activity, membrane",membrane-associated PKC; 25 μM,1511 pmol per min per mg protein
same,PKC Activity Ratio membrane/cytosol,membrane-associated PKC; 50 μM,0.27
same,"PKC Activity, membrane",membrane-associated PKC; 50 μM,1000 pmol per min per mg protein
same,"PKC Activity, cytosol",cytosolic PKC [3]; 5 μM,7305 pmol per min per mg protein
same,"PKC Activity, cytosol",cytosolic PKC [3]; 25 μM,2485 pmol per min per mg protein
same,"PKC Activity, cytosol",cytosolic PKC [3]; 50 μM,3658 pmol per min per mg protein
same,adhesion to fibrinogen,fibrinogen,most sensitive to inhibition
